This is an account of results in DBAASP.

What all share (experiment): ≥ marks a high value that may be exact or a test limit, other limits are often not marked, values filed in µg/mL are converted to µM
Assay [1] concerns Pseudomonas aeruginosa Ps4.
The subject of assay [2] is Bacillus subtilis ATCC 6633.
Assay [3] deals with Staphylococcus aureus ATCC 6538P.
Assay [4] concerns Shigella dysenteriae ATCC 9752.
The test system of assay [5] is Pseudomonas aeruginosa ATCC 27853.
For assay [6], the system named is Klebsiella pneumoniae ATCC 10031.
The test system of assay [7] is Salmonella enterica subsp. enterica serovar Typhimurium ATCC 14028.
For assay [8], the system named is Staphylococcus epidermidis ATCC 12228.
The test system of assay [9] is Micrococcus luteus ATCC 10240.
Assay [10] has as its system Escherichia coli ATCC 25922.
Assay [11] concerns Staphylococcus aureus ATCC 43300.
Assay [12] deals with Salmonella sp.
The test system of assay [13] is Salmonella enterica subsp. enterica serovar Enteritidis.
In assay [14] the test system is Escherichia coli.
In assay [15] the test system is Yersinia enterocolitica.
The test system of assay [16] is Staphylococcus aureus ATCC 29213.
Assay [17] concerns Escherichia coli ATCC 8739.
For assay [18], the system named is Staphylococcus aureus ATCC 25923.
Assay [19] has as its system Candida albicans MDM8.
The test system of assay [20] is Micrococcus luteus A270.
Assay [21] has as its system Escherichia coli SBS 363.

In brackets after ≈: the same amount, converted by molar mass. A value given as a limit tells only on which side of the number the result lay.

`CC[C@H](C)[C@H](NC(=O)[C@H](CC(N)=O)NC(=O)[C@H](CCCN=C(N)N)NC(=O)[C@H](CCC(N)=O)NC(=O)[C@H](Cc1c[nH]c2ccccc12)NC(=O)[C@H](Cc1ccccc1)NC(=O)[C@@H](N)CS)C(=O)N[C@@H](CCCN=C(N)N)C(=O)N[C@@H](CCCCN)C(=O)N[C@H](C(=O)N[C@@H](CCCN=C(N)N)C(=O)N[C@@H](CS)C(N)=O)C(C)C` [CFWQRNIRKVRC] yielded an MIC in assay [1] of at least 155 µM.
For `CC(C)C[C@H](NC(=O)[C@H](Cc1c[nH]c2ccccc12)NC(=O)[C@H](CCCCN)NC(=O)[C@H](CC(C)C)NC(=O)[C@@H](N)Cc1ccccc1)C(=O)N[C@@H](Cc1ccccc1)C(=O)N[C@@H](CCCCN)C(=O)N[C@@H](Cc1c[nH]c2ccccc12)C(=O)N[C@@H](C)C(=O)N[C@@H](CCCCN)C(=O)N[C@@H](CCCCN)C(N)=O` [FLKWLFKWAKK], the minimum inhibitory concentration (MIC) in assay [2] amounted to 2.07 µM (≈ 3.1 µg/mL); in [3], 4.21 µM (≈ 6.3 µg/mL); in [4] it was 16.7 µM (≈ 25 µg/mL); in [5], 8.36 µM (≈ 12.5 µg/mL); in [6], 8.36 µM (≈ 12.5 µg/mL); in assay [7], 33.4 µM (≈ 50 µg/mL). Besides, the MIC in assay [8] was 4.21 µM (≈ 6.3 µg/mL); in [9], 2.07 µM (≈ 3.1 µg/mL); in assay [10], 8.36 µM (≈ 12.5 µg/mL).
`CC[C@H](C)[C@H](NC(=O)[C@H](CC(N)=O)NC(=O)[C@H](CCCN=C(N)N)NC(=O)[C@@H]1CCCN1C(=O)[C@H](Cc1c[nH]c2ccccc12)NC(=O)[C@@H](N)Cc1ccccc1)C(=O)N[C@@H](CCCN=C(N)N)C(=O)N[C@@H](CCCCN)C(=O)N[C@H](C(=O)N[C@@H](CCCN=C(N)N)C(N)=O)C(C)C` [FWPRNIRKVR]: the MIC in assay [1] was at least 182 µM.
Still for that read-out and setting: in the case of `CC[C@H](C)[C@H](NC(=O)[C@H](CC(N)=O)NC(=O)[C@H](CCCN=C(N)N)NC(=O)[C@H](CCC(N)=O)NC(=O)[C@H](Cc1c[nH]c2ccccc12)NC(=O)[C@@H](N)Cc1ccccc1)C(=O)N[C@@H](CCCN=C(N)N)C(=O)N[C@@H](Cc1ccccc1)C(=O)N[C@@H](CCCN=C(N)N)C(=O)N[C@@H](CCCN=C(N)N)C(N)=O` [FWQRNIRFRR] it was at least 250 µM.
In the case of `CC(C)C[C@H](NC(=O)[C@H](CC(C)C)NC(=O)[C@H](Cc1c[nH]c2ccccc12)NC(=O)[C@H](CCCCN)NC(=O)[C@H](CC(C)C)NC(=O)[C@H](CC(C)C)NC(=O)[C@@H](N)CCCCN)C(=O)N[C@@H](CCCCN)C(N)=O` [KLLKWLLK], the MIC was at least 48 µM in [2]; 24 µM (≈ 25 µg/mL) in [3]; at least 192 µM in [4]; 96 µM (≈ 99.9 µg/mL) in [5]; at least 96 µM in [6]; over 192 µM in assay [7]. In addition, the MIC in assay [8] was 192 µM (≈ 200 µg/mL); in assay [9], at least 96 µM; in assay [10], 96 µM (≈ 99.9 µg/mL).
As for `CSCC[C@H](NC(=O)[C@H](CCCN=C(N)N)NC(=O)[C@H](CCCN=C(N)N)NC(=O)[C@@H](N)CC(N)=O)C(=O)N[C@@H](CCCCN)C(=O)N[C@@H](Cc1c[nH]c2ccccc12)C(=O)N[C@@H](CCCCN)C(=O)N[C@@H](CCCCN)C(N)=O` [NRRMKWKK], the MIC in [11] is over 50 µM; in assay [5] it was over 50 µM; in [12] it was at least 50 µM; in assay [13] it was at least 50 µM; in assay [14] it was over 50 µM; in assay [15], at least 50 µM. Besides, the MIC in assay [10] and in assay [16] was over 50 µM in each case.
Turning to `CC[C@H](C)[C@H](NC(=O)[C@H](CCCCN)NC(=O)[C@H](CCCN=C(N)N)NC(=O)[C@H](CC(C)C)NC(=O)[C@@H](NC(=O)[C@H](CCCCN)NC(=O)CNC(=O)[C@H](CC(C)C)NC(=O)[C@@H](NC(=O)[C@H](CCCCN)NC(=O)[C@H](CC(N)=O)NC(=O)[C@H](CCCN=C(N)N)NC(=O)[C@H](C)NC(=O)[C@H](CCSC)NC(=O)[C@@H]1CCCN1)[C@@H](C)CC)[C@@H](C)CC)C(=O)N[C@@H](C)C(=O)N[C@@H](C)C(=O)N[C@@H](Cc1ccccc1)C(=O)N[C@@H](CCCCN)C(=O)O` [PMARNKILGKILRKIAAFK], the MIC came out at 3.69 µM (≈ 8 µg/mL) in assay [17] and 29.5 µM (≈ 64 µg/mL) in assay [18].
Consider `CC[C@H](C)[C@H](NC(=O)[C@H](CCCN=C(N)N)NC(=O)[C@@H](NC(=O)[C@H](CC(N)=O)NC(=O)[C@H](CCCN=C(N)N)NC(=O)[C@H](CCC(N)=O)NC(=O)[C@H](Cc1c[nH]c2ccccc12)NC(=O)[C@H](Cc1ccccc1)NC(=O)[C@@H](N)CCCN=C(N)N)[C@@H](C)CC)C(=O)N[C@@H](CCCN=C(N)N)C(=O)N[C@@H](CCCN=C(N)N)C(N)=O` [RFWQRNIRIRR], for which the MIC in assay [1] was at least 156 µM.
In [1], `CC[C@H](C)[C@H](NC(=O)[C@H](CC(N)=O)NC(=O)[C@H](CCCN=C(N)N)NC(=O)[C@H](CCC(N)=O)NC(=O)[C@H](Cc1c[nH]c2ccccc12)NC(=O)[C@H](Cc1ccccc1)NC(=O)[C@@H](N)CCCN=C(N)N)C(=O)N[C@@H](CCCN=C(N)N)C(=O)N[C@@H](CCCCN)C(=O)N[C@@H](Cc1ccc(O)cc1)C(=O)N[C@@H](CCCN=C(N)N)C(N)=O` [RFWQRNIRKYR] registered an MIC of at least 154 µM.
`CC[C@H](C)[C@H](NC(=O)[C@H](CCC(N)=O)NC(=O)[C@@H](N)CCCN=C(N)N)C(=O)N[C@H](C(=O)N[C@@H](CCCN=C(N)N)C(=O)N[C@@H](CCCN=C(N)N)C(=O)N[C@@H](CCSC)C(=O)N[C@@H](Cc1c[nH]c2ccccc12)C(=O)N[C@@H](CCCN=C(N)N)C(N)=O)[C@@H](C)CC` [RQIIRRMWR]: the MIC is over 38 µM in assay [11]; at least 38 µM in [12]; at least 38 µM in assay [13]; 19 µM (≈ 25 µg/mL) in assay [14]; at least 38 µM in [15]; over 38 µM in assay [10]. In [16], this compound gave a minimal inhibitory concentration (MIC) of over 38 µM.
Consider `CC[C@H](C)[C@H](NC(=O)[C@H](CCCCN)NC(=O)[C@@H](NC(=O)[C@H](CCC(N)=O)NC(=O)[C@@H](N)CCCN=C(N)N)[C@@H](C)CC)C(=O)N[C@@H](CCCN=C(N)N)C(=O)N[C@@H](CCCN=C(N)N)C(=O)N[C@@H](CCSC)C(=O)N[C@@H](CCCCN)C(=O)N[C@@H](Cc1c[nH]c2ccccc12)C(=O)N[C@@H](CCCN=C(N)N)C(N)=O` [RQIKIRRMKWR], for which the minimum inhibitory concentration (MIC) stood at 31.8 µM (≈ 50 µg/mL) in assay [11]; 3.18 µM (≈ 5 µg/mL) in assay [12]; 31.8 µM (≈ 50 µg/mL) in assay [13]; 3.56 µM (≈ 5.59 µg/mL) in assay [14]; 3.98 µM (≈ 6.25 µg/mL) in assay [15]; 7.96 µM (≈ 12.5 µg/mL) in assay [10]. Also, the MIC in assay [16] was over 31.8 µM.
For `CC[C@H](C)[C@H](NC(=O)[C@H](CCC(N)=O)NC(=O)[C@@H](N)CCCN=C(N)N)C(=O)N[C@@H](Cc1c[nH]c2ccccc12)C(=O)N[C@@H](Cc1c[nH]c2ccccc12)C(=O)N[C@@H](Cc1c[nH]c2ccccc12)C(=O)N[C@@H](Cc1c[nH]c2ccccc12)C(=O)N[C@@H](CCC(N)=O)C(=O)N[C@@H](CCCN=C(N)N)C(N)=O` [RQIWWWWQR], the MIC is over 34.6 µM in assay [11]; 4.33 µM (≈ 6.25 µg/mL) in assay [12]; 8.65 µM (≈ 12.5 µg/mL) in [13]; 4.33 µM (≈ 6.25 µg/mL) in [14]; 17.3 µM (≈ 25 µg/mL) in assay [15]; 4.33 µM (≈ 6.25 µg/mL) in assay [10]. Moreover, the minimal inhibitory concentration (MIC) in assay [16] stood at 34.6 µM (≈ 50 µg/mL).
With `CC[C@H](C)[C@H](NC(=O)[C@H](CCCCN)NC(=O)[C@@H](NC(=O)[C@H](CCCN=C(N)N)NC(=O)[C@H](CCCN=C(N)N)NC(=O)[C@H](CCSC)NC(=O)[C@H](CCCCN)NC(=O)[C@H](Cc1c[nH]c2ccccc12)NC(=O)[C@@H](N)CCCN=C(N)N)[C@@H](C)CC)C(=O)N[C@@H](CCC(N)=O)C(=O)N[C@@H](CCCN=C(N)N)C(N)=O` [RWKMRRIKIQR], the minimum inhibitory concentration (MIC) in assay [11] was over 31.8 µM; in assay [12], 31.8 µM (≈ 50 µg/mL); in assay [13], 31.8 µM (≈ 50 µg/mL); in [14], over 31.8 µM; in assay [15], 31.8 µM (≈ 50 µg/mL); in assay [10], over 31.8 µM. Further, the MIC in [16] was over 31.8 µM.
As to `CC[C@H](C)[C@H](NC(=O)[C@H](CC(C)C)NC(=O)[C@H](CO)NC(=O)[C@H](CC(C)C)NC(=O)[C@H](CC(C)C)NC(=O)[C@@H](N)CO)C(=O)N[C@@H](CCCN=C(N)N)C(=O)N[C@@H](CCCCN)C(=O)N[C@@H](Cc1ccccc1)C(=O)N[C@@H](Cc1ccccc1)C(=O)N[C@H](C(N)=O)[C@@H](C)O` [SLLSLIRKFFT], the MIC in assay [19] stood at 1.56 µM (≈ 2.06 µg/mL); in assay [20] it was 0.39 µM (≈ 0.516 µg/mL); in assay [21], 1.56 µM (≈ 2.06 µg/mL).

The MIC is the smallest concentration in the dilution series that meets the test's criterion for growth inhibition. Lower therefore signals a more susceptible organism.
